PMC6324813, “Biological evaluation of isoflavonoids from Genista halacsyi using estrogen-target cells: Activities of glucosides compared to aglycones” (PLoS ONE, 2019)

What was measured:
RAW 264.7 cells = experiment: Differentiation of RAW 264.7 cells to osteoclasts, TRAP activity; type: cell-based, mouse; details: RANKL 50 ng/ml + E2 1 nM or compound 1 μM; 3 days; DF plus vehicle = 100
Description: Clones of RAW 264.7 cells competent to differentiate to multinuclear osteoclasts upon activation with RANKL provide valuable information on the regulation of osteoclast differentiation. Differentiation-competent RAW cells (ATCC TIB-71) were seeded in 96-well plates at a density of 9,600 cells per well. The cells were plated in the presence of test compounds or compound diluent (0.1% DMSO) and, 4 h after plating, were exposed for 3 days to 50 ng/ml RANKL or to plain medium. Osteoclastic differentiation was assessed via induction of Tartrate-Resistant Acid Phosphatase (TRAP) activity. The cells were washed with PBS and incubated with 25μl lysis buffer (0.4 M NaCl, 25 mM Hepes pH 7.7, 1.5 mM MgCl2, 0.2 mM EDTA, 1% NP40) for 5 min on ice.

ERβ = ERβ (Homo sapiens, UniProt Q92731); experiment: ERE-dependent luciferase gene transcription in HEK:ERβ cells; type: cell-based; design: expressed in transfected cells; host or cells: HEK-293 (HEK:ERβ clone, with pERE-tk-Luciferase); details: 18 h
MC3T3-E1 cells [1] = experiment: Differentiation of MC3T3-E1 cells to osteoblasts, AlkP activity; type: cell-based, mouse; details: DF + E2 1 nM or compound 1 μM; 6 days; DF plus vehicle = 100
Description: (§1) Differentiation of MC3T3-E1 cells was carried out in 96-well plates using 3,300 cells per well and was assessed via induction of, i) Alkaline Phosphatase (AlkP) activity after 6 days of treatment and, ii) mineralization of extracellular matrix after 21 days of treatment. Briefly, 24 h after plating, the cells were incubated with test compounds or vehicle i.e. the compound diluent (0.1% DMSO) and then exposed for 6 days to differentiation medium in presence or absence of differentiation factors (cf. Cell culture) with a change to fresh compounds and medium in 3 days. AlkP activity was assessed at 405 nm in a Safire II microplate reader using as substrate p-nitrophenyl-phosphate (pNPP, Sigma-Aldrich) as already described. Mineralization of MC3T3 cells was assessed by staining with Alizarin red (Fluka). Cells were cultured and treated as described above for 21 days, with media and test compounds changed every 3 days, and calcium phosphate deposition was assayed as described by Gregory et al.. Briefly, the cells were washed twice with PBS and fixed with 70% ethanol for 15 min on ice. The cells were stained with Alizarin red solution (40 mM, pH 4.2) for 30 min at room temperature, washed twice with distilled water and once with PBS. The dye from the stained mineral deposits was extracted with 33% acetic acid and the absorbance was measured at 405 nm using a Safire II microplate reader (Tecan).

MCF-7 cells = experiment: MCF-7 cell proliferation (MTT); type: cell-based, human; details: Homo sapiens, MCF7, 72 h; read-out: Induction of cell proliferation (MCF-7 cells) Agonism at 1μΜ (% of 0.1nM E2)
Description: Test compound effects on the proliferation of MCF-7 and MDA-MB-231 cells were assessed as previously described.

TNFα mRNA = experiment: LPS-induced TNFα mRNA expression in RAW 264.7 cells (RT-qPCR); type: cell-based, mouse; details: for reduction of LPS induction of TNFα mRNA expression: 3 μM, LPS 100 ng/ml 1 h; for suppression of LPS-stimulated TNFα mRNA expression: pre-incubated with 3 μM isoflavonoid prior to the stimulation
Description: To assess TNFα mRNA expression, RAW 264.7 cells were plated in 6-well plates in alpha-MEM medium supplemented with 10% DCC-FBS, at a density of 300,000 cells per well, maintained in culture for 72 h and then exposed to vehicle (0.3% DMSO) or 3 μΜ test compound for 20 min or 24 h prior to stimulation with 100 ng/ml lipopolysaccharide (Sigma L4391) for 1 h. Extraction of total RNA, reverse transcription (RT) and quantitative PCR (qPCR) analysis of mRNA expression levels were performed as previously described. Relative gene expression levels were calculated by the comparative Ct method using the formula 2^(-ΔCt). Tumor necrosis factor alpha (TNFα) mRNA levels were normalized to the respective levels of […] (GAPDH). Test compound effects on the relative number of viable cells were assessed using crystal violet and a Safire II microplate reader (Tecan) as previously described. […] The following primers were used: […]

MC3T3-E1 cells [2] = experiment: Mineralization of MC3T3-E1 cells, Alizarin red staining; type: cell-based, mouse; details: DF + E2 1 nM or compound 1 μM; 21 days; DF plus vehicle = 100
Description: as §1, with “Differentiation of MC3T3-E1 cells to osteoblasts has been extensively used to screen for compounds that may promote bone formation. Differentiation” for “Differentiation”

Sequence of ERβ (Q92731 whole entry): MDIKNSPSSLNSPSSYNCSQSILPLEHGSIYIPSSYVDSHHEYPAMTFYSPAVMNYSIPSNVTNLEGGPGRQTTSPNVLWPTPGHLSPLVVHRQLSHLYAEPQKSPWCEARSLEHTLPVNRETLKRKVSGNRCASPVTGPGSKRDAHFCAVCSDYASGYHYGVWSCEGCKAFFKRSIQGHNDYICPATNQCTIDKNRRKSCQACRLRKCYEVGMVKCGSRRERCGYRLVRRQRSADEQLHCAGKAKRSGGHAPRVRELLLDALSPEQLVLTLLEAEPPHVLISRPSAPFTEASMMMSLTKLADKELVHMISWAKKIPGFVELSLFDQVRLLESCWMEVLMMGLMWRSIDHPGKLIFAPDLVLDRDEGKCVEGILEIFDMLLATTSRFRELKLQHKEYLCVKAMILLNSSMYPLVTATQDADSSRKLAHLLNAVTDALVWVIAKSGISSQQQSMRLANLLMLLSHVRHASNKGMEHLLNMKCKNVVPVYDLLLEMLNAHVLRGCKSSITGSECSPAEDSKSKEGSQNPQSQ

O=c1c(-c2ccc(OC3O[C@H](CO)[C@@H](O)[C@H](O)[C@H]3O)cc2)coc2cc(OC3O[C@H](CO)[C@@H](O)[C@H](O)[C@H]3O)cc(O)c12 (stereo partly drawn) [Compound 11, 7,4΄-di-O-glucopyranosylgenistein]
Differentiation of RAW 267.4 cells, TRAP expression (%) (RAW 264.7 cells): 112±9% | activation at 1 µM (ERβ; read-out: Induction of luciferase gene transcription through ERβ, HEK:ERβ cells, Agonism at 1μΜ (% of 0.1nM E2)): 80 ± 20% | Differentiation of MC3T3-E1 cells, AlkP expression (%) (MC3T3-E1 cells [1]): 120±6 % | activation at 1 µM (MCF-7 cells): 79 ± 5% | reduction of LPS induction of TNFα mRNA expression (TNFα mRNA; pre-treatment 20 min): 30% | reduction of LPS induction of TNFα mRNA expression (TNFα mRNA; pre-treatment 24 h): 29% | suppression of LPS-stimulated TNFα mRNA expression (TNFα mRNA): ~ 30% | Differentiation of MC3T3-E1 cells, Alizarin red staining (%) (MC3T3-E1 cells [2]): 120±5%

O=c1c(-c2ccc(O)cc2)coc2cc(O[C@@H]3O[C@H](CO)[C@@H](O)[C@H](O)[C@H]3O)cc(O)c12 [Compound 12, 7-O-β-D-glucopyranosyl-genistein]
Differentiation of RAW 267.4 cells, TRAP expression (%) (RAW 264.7 cells): 110±5% | Induction of luciferase gene transcription through ERβ, HEK:ERβ cells, Agonism at 1μΜ (% of 0.1nM E2) (ERβ; compounds 1 μM, estradiol 0.1 nM): 121 ± 18 (Full) % of 0.1nM E2 | Differentiation of MC3T3-E1 cells, AlkP expression (%) (MC3T3-E1 cells [1]): 125±8 % | activation at 1 µM (MCF-7 cells): 79 ± 9% | reduction of LPS induction of TNFα mRNA expression (TNFα mRNA; pre-treatment 24 h): 20% | suppression of LPS-stimulated TNFα mRNA expression (TNFα mRNA): marginally effective | Differentiation of MC3T3-E1 cells, Alizarin red staining (%) (MC3T3-E1 cells [2]): 137±14%
